In patent US9694016B2 (Novartis AG, priority 2013, dated 2017) one finds IC50 data, which are given here for 34 compounds.

Chain of b-Raf (V600E) (P15056 whole entry V600E): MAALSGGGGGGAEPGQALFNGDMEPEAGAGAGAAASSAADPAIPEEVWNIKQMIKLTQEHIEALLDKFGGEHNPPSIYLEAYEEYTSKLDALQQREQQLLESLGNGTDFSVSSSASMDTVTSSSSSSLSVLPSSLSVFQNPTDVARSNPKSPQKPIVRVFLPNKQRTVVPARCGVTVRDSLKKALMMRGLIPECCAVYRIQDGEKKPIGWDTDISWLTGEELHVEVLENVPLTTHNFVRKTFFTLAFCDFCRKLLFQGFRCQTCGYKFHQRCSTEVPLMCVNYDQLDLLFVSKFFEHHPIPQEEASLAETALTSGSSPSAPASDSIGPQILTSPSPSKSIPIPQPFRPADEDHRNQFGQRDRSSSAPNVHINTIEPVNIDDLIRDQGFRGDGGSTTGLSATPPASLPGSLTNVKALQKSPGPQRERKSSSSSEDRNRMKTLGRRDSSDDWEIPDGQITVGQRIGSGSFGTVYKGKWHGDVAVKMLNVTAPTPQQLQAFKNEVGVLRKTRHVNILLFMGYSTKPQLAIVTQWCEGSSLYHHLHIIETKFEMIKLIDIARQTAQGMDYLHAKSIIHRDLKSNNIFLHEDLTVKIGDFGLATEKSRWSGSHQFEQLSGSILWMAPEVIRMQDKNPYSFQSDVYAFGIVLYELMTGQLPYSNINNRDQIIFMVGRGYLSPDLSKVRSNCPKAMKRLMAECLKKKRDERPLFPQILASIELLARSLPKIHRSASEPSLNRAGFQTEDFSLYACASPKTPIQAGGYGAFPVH

One experiment addresses b-Raf (V600E) (Homo sapiens (Human), UniProt P15056, V600E). Particulars: read-out: b-Raf IC-50; AlphaScreen, 60 min pre-incubation, 3 hours reaction. (Alpha assays give light when donor and acceptor beads are brought close together.)
`Cc1ccc(C(=O)Nc2cccc(C(C)C)c2)cc1-c1cc(N2CCOCC2)c(=O)n(C)c1` [Example 436, N-(3-isopropylphenyl)-4-methyl-3-(1-methyl-5-morpholino-6-oxo-1,6-dihydropyridin-3-yl)benzamide]: the IC50 was found to be 3.8 nM.
With `Cc1ccc(C(=O)Nc2cccc(-c3nnco3)c2)cc1-c1cc(N2CCOCC2)c(=O)n(C)c1` [Example 437, N-(3-(1,3,4-oxadiazol-2-yl)phenyl)-4-methyl-3-(1-methyl-5-morpholino-6-oxo-1,6-dihydropyridin-3-yl)benzamide], the IC50 was determined as 15.4 nM.
Take `Cc1ccc(C(=O)Nc2cccc(C(C)(C)O)c2)cc1-c1cc(N2CCOCC2)c(=O)n(C)c1` [Example 439, N-(3-(2-hydroxypropan-2-yl)phenyl)-4-methyl-3-(1-methyl-5-morpholino-6-oxo-1,6-dihydropyridin-3-yl)benzamide]: the IC50 was 6.3 nM.
On to `COc1cccc(NC(=O)c2ccc(C)c(-c3cc(N4CCOCC4)c(=O)n(C)c3)c2)c1` [Example 440, N-(3-methoxyphenyl)-4-methyl-3-(1-methyl-5-morpholino-6-oxo-1,6-dihydropyridin-3-yl)benzamide], for which the IC50 came out at 93.9 nM.
For `Cc1ccc(C(=O)Nc2cccc(OC(F)(F)F)c2)cc1-c1cc(N2CCOCC2)c(=O)n(C)c1` [Example 441, 4-methyl-3-(1-methyl-5-morpholino-6-oxo-1,6-dihydropyridin-3-yl)-N-(3-(trifluoromethoxy)phenyl)benzamide], the IC50 worked out at 33.2 nM.
Same read-out and setting: to `COc1cncc(NC(=O)c2ccc(C)c(-c3cc(N4CCOCC4)c(=O)n(C)c3)c2)c1` [Example 442, N-(5-methoxypyridin-3-yl)-4-methyl-3-(1-methyl-5-morpholino-6-oxo-1,6-dihydropyridin-3-yl)benzamide] belongs 68.7 nM.
The same measure, in the same setting: to `Cc1ncc(C(=O)Nc2cccc(C(F)(F)F)c2)cc1-c1cc(N2CCOCC2)c(=O)n(C)c1` [Example 443, 1′,2-dimethyl-5′-morpholino-6′-oxo-N-(3-(trifluoromethyl)phenyl)-1′,6′-dihydro-[3,3′-bipyridine]-5-carboxamide] belongs 6.2 nM; to `Cc1ncc(C(=O)Nc2cccc(C(C)(C)C#N)c2)cc1-c1cc(N2CCOCC2)c(=O)n(C)c1` [Example 444, N-(3-(2-cyanopropan-2-yl)phenyl)-1′,2-dimethyl-5′-morpholino-6′-oxo-1′,6′-dihydro-[3,3′-bipyridine]-5-carboxamide], 44.8 nM.
On to `Cc1ncc(C(=O)Nc2cccc(C(F)F)c2)cc1-c1cc(N2CCOCC2)c(=O)n(C)c1` [Example 445, N-(3-(difluoromethyl)phenyl)-1′,2-dimethyl-5′-morpholino-6′-oxo-1′,6′-dihydro-[3,3′-bipyridine]-5-carboxamide], for which the IC50 stood at 12 nM.

Still in this experiment, the particulars now being: read-out: b-Raf IC-50; Table 2; AlphaScreen, 3 hours reaction.
Take `COc1ccc(C(=O)Nc2cnc(Cl)c(-c3cc(N4CCOCC4)c(=O)n(C)c3)c2)cc1C(F)(F)F` [Example 408, N-(2-chloro-1′-methyl-5′-morpholino-6′-oxo-1′,6′-dihydro-[3,3-bipyridin]-5-yl)-4-methoxy-3-(trifluoromethyl)benzamide]: the IC50 came out at 6.8 nM.
For the compound `Cn1cc(-c2cc(NC(=O)c3cccc(C(F)(F)F)c3)ccc2Cl)cc(N2CCOCC2)c1=O` [Example 409, N-(4-chloro-3-(1-methyl-5-morpholino-6-oxo-1,6-dihydropyridin-3-yl)phenyl)-3-(trifluoromethyl)benzamide], the IC50 worked out at 1.7 nM.
Take `Cn1cc(-c2cc(NC(=O)c3cccc(C(F)(F)F)c3)ccc2F)cc(N2CCOCC2)c1=O` [Example 410]: the IC50 worked out at 2 nM.
Consider `Cn1cc(-c2cc(NC(=O)c3cccc(C(F)(F)F)c3)ccc2C#N)cc(N2CCOCC2)c1=O` [Example 411, N-(4-cyano-3-(1-methyl-5-morpholino-6-oxo-1,6-dihydropyridin-3-yl)phenyl)-3-(trifluoromethyl)benzamide], for which the IC50 was 3100 nM.
With `Cn1cc(-c2cc(NC(=O)c3cccc(C(F)F)c3)ccc2Cl)cc(N2CCOCC2)c1=O` [Example 412, N-(4-chloro-3-(1-methyl-5-morpholino-6-oxo-1,6-dihydropyridin-3-yl)phenyl)-3-(difluoromethyl)benzamide], the IC50 is 0.8 nM.
On the same count and under the same terms, to `Cn1cc(-c2cc(NC(=O)c3ccnc(C(F)(F)F)c3)ccc2Cl)cc(N2CCOCC2)c1=O` [Example 413, N-(4-chloro-3-(1-methyl-5-morpholino-6-oxo-1,6-dihydropyridin-3-yl)phenyl)-2-(trifluoromethyl)isonicotinamide] belongs 0.4 nM.
Regarding `Cn1cc(-c2cc(NC(=O)c3ccnc(C(C)(F)F)c3)ccc2Cl)cc(N2CCOCC2)c1=O` [Example 414, N-(4-chloro-3-(1-methyl-5-morpholino-6-oxo-1,6-dihydropyridin-3-yl)phenyl)-2-(1,1-difluoroethyl)isonicotinamide], the IC50 amounted to 1.4 nM.
With `Cn1cc(-c2cc(NC(=O)c3ccnc(C(F)(F)F)c3)ccc2C#N)cc(N2CCOCC2)c1=O` [Example 415, N-(4-cyano-3-(1-methyl-5-morpholino-6-oxo-1,6-dihydropyridin-3-yl)phenyl)-2-(trifluoromethyl)isonicotinamide], the IC50 was 10100 nM.
Consider `Cn1cc(-c2cc(NC(=O)c3cccc(C(F)F)c3)ccc2F)cc(N2CCOCC2)c1=O` [Example 417, 3-(difluoromethyl)-N-(4-fluoro-3-(1-methyl-5-morpholino-6-oxo-1,6-dihydropyridin-3-yl)phenyl)benzamide], for which the IC50 came to 3.1 nM.
On the same count and under the same terms, to `Cn1cc(-c2cc(NC(=O)c3ccnc(C(F)(F)F)c3)ccc2F)cc(N2CCOCC2)c1=O` [Example 418] belongs 3.5 nM; to `Cn1cc(-c2cc(NC(=O)c3ccnc(C(C)(F)F)c3)ccc2F)cc(N2CCOCC2)c1=O` [Example 419], 4.3 nM; to `Cn1cc(-c2cc(NC(=O)c3cccc(C(F)F)c3)ccc2C#N)cc(N2CCOCC2)c1=O` [Example 420, N-(4-cyano-3-(1-methyl-5-morpholino-6-oxo-1,6-dihydropyridin-3-yl)phenyl)-3-(difluoromethyl)benzamide], 3600 nM.
As for `CC(C)c1cc(C(=O)Nc2ccc(Cl)c(-c3cc(N4CCOCC4)c(=O)n(C)c3)c2)ccn1` [Example 421, N-(4-chloro-3-(1-methyl-5-morpholino-6-oxo-1,6-dihydropyridin-3-yl)phenyl)-2-isopropylisonicotinamide], the IC50 is 1 nM.
As for `Cn1cc(-c2cc(C(=O)Nc3cccc(C(F)(F)F)c3)cnc2Cl)cc(N2CCOCC2)c1=O` [Example 423, 2-chloro-1′-methyl-5′-morpholino-6′-oxo-N-(3-(trifluoromethyl)phenyl)-1′,6′-dihydro-[3,3′-bipyridine]-5-carboxamide], the IC50 stood at 6 nM.
`Cn1cc(-c2cc(C(=O)Nc3cccc(C(C)(C)O)c3)cnc2Cl)cc(N2CCOCC2)c1=O` [Example 424, 2-chloro-N-(3-(2-hydroxypropan-2-yl)phenyl)-t-methyl-5′-morpholino-6′-oxo-1′,6′-dihydro-[3,3′-bipyridine]-5-carboxamide]: the IC50 stood at 50.4 nM.
Regarding `Cn1cc(-c2cc(C(=O)Nc3cccc(C(F)(F)F)c3)ccc2Cl)cc(N2CCOCC2)c1=O` [Example 425, 4-chloro-3-(1-methyl-5-morpholino-6-oxo-1,6-dihydropyridin-3-yl)-N-(3-(trifluoromethyl)phenyl)benzamide], the IC50 turned out to be 2.6 nM.
Regarding `Cn1cc(-c2cc(C(=O)Nc3cccc(C(F)F)c3)ccc2Cl)cc(N2CCOCC2)c1=O` [Example 426, 4-chloro-N-(3-(difluoromethyl)phenyl)-3-(1-methyl-5-morpholino-6-oxo-1,6-dihydropyridin-3-yl)benzamide], the IC50 was 2.4 nM.
Turning to `Cn1cc(-c2cc(C(=O)Nc3cccc(C(C)(C)C#N)c3)ccc2Cl)cc(N2CCOCC2)c1=O` [Example 427, 4-chloro-N-(3-(2-cyanopropan-2-yl)phenyl)-3-(1-methyl-5-morpholino-6-oxo-1,6-dihydropyridin-3-yl)benzamide], the IC50 worked out at 6 nM.
On the same count and under the same terms, to `Cc1cn(-c2cc(NC(=O)c3ccc(C)c(-c4cc(N5CCOCC5)c(=O)n(C)c4)c3)cc(C(F)(F)F)c2)cn1` [Example 428, 4-methyl-N-(3-(4-methyl-1H-imidazol-1-yl)-5-(trifluoromethyl)phenyl)-3-(1-methyl-5-morpholino-6-oxo-1,6-dihydropyridin-3-yl)benzamide] belongs 10.1 nM; to `Cc1ccc(C(=O)Nc2ccccc2)cc1-c1cc(N2CCOCC2)c(=O)n(C)c1` [Example 429, 4-methyl-3-(1-methyl-5-morpholino-6-oxo-1,6-dihydropyridin-3-yl)-N-phenylbenzamide], 33.7 nM.
As for `Cc1ccc(C(=O)Nc2cccc(C(F)F)c2)cc1-c1cc(N2CCOCC2)c(=O)n(C)c1` [Example 430, N-(3-(difluoromethyl)phenyl)-4-methyl-3-(1-methyl-5-morpholino-6-oxo-1,6-dihydropyridin-3-yl)benzamide], the IC50 is 1.6 nM.
For `Cc1ccc(C(=O)Nc2cccc(C(C)(C)C#N)c2)cc1-c1cc(N2CCOCC2)c(=O)n(C)c1` [Example 431, N-(3-(2-cyanopropan-2-yl)phenyl)-4-methyl-3-(1-methyl-5-morpholino-6-oxo-1,6-dihydropyridin-3-yl)benzamide], the IC50 stood at 3.7 nM.
Consider `Cc1ccc(C(=O)Nc2ccccn2)cc1-c1cc(N2CCOCC2)c(=O)n(C)c1` [Example 432, 4-methyl-3-(1-methyl-5-morpholino-6-oxo-1,6-dihydropyridin-3-yl)-N-(pyridin-2-yl)benzamide], for which the IC50 was 99 nM.
With `Cc1ccc(C(=O)Nc2cccnc2)cc1-c1cc(N2CCOCC2)c(=O)n(C)c1` [Example 433, 4-methyl-3-(1-methyl-5-morpholino-6-oxo-1,6-dihydropyridin-3-yl)-N-(pyridin-3-yl)benzamide], the IC50 turned out to be 200 nM.
For the compound `CCc1cccc(NC(=O)c2ccc(C)c(-c3cc(N4CCOCC4)c(=O)n(C)c3)c2)c1` [Example 435, N-(3-ethylphenyl)-4-methyl-3-(1-methyl-5-morpholino-6-oxo-1,6-dihydropyridin-3-yl)benzamide], the IC50 was 2.4 nM.
